Active and inactive are the calls of the source.
What was measured:
[1] = target: Atypical kinase COQ8A, mitochondrial (Homo sapiens, UniProt Q8NI60)
[2] = target: T1, Beta-adrenergic receptor kinase 1 (Homo sapiens, UniProt P25098)
T1 sequence (P25098 whole entry): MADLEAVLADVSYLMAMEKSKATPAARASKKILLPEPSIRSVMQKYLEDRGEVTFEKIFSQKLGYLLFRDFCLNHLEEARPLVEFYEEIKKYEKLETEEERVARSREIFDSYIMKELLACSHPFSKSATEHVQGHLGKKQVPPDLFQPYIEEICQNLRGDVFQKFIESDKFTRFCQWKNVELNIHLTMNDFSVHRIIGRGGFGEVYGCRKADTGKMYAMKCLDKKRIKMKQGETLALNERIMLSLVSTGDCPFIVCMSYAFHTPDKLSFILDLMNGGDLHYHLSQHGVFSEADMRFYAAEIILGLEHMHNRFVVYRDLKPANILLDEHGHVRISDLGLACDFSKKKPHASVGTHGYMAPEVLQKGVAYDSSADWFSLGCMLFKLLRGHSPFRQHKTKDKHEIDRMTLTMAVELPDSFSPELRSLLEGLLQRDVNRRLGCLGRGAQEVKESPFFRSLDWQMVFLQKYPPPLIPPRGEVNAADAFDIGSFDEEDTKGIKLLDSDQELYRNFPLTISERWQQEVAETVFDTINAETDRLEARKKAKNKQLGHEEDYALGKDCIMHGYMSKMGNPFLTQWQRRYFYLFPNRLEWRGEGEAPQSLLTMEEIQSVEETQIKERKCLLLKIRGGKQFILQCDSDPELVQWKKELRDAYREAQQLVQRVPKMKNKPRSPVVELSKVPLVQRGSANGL

[3] = target: T2, Bone morphogenetic protein receptor type-2 (Homo sapiens, UniProt Q13873)
T2 sequence (Q13873 whole entry): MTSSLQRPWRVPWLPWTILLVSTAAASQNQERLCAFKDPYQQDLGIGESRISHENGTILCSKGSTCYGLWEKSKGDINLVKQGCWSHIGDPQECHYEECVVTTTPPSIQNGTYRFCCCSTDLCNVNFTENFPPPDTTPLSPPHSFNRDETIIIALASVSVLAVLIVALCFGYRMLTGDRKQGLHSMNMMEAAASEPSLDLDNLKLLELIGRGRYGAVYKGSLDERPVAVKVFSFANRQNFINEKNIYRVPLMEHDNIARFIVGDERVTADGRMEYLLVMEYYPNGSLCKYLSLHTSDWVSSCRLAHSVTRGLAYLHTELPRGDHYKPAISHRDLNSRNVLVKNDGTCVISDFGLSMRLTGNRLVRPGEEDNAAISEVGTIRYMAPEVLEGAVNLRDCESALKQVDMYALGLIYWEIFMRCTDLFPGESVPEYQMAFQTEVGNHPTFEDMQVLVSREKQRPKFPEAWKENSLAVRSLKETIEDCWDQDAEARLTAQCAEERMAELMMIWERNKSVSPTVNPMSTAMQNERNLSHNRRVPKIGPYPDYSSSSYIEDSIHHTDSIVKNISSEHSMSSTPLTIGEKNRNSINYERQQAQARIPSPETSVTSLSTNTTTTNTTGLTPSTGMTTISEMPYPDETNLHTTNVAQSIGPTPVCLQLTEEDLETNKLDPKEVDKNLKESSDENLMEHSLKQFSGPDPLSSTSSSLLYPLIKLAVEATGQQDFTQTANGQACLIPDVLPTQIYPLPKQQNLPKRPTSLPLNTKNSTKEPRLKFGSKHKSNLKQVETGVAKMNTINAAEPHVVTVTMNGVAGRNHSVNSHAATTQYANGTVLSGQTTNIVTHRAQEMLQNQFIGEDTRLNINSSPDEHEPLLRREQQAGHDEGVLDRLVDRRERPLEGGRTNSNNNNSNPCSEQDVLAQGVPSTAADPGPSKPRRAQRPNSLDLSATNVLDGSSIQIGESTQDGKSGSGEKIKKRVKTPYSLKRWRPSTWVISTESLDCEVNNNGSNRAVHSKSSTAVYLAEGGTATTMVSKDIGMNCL

[4] = target: Mitotic checkpoint serine/threonine-protein kinase BUB1 (Homo sapiens, UniProt O43683)
[5] = target: Cyclin-dependent kinase 13 (Homo sapiens, UniProt Q14004)
[6] = target: Casein kinase I isoform epsilon (Homo sapiens, UniProt P49674)
Midasin = Midasin (Homo sapiens, UniProt Q9NU22)
[7] = target: U5 small nuclear ribonucleoprotein 200 kDa helicase (Homo sapiens, UniProt O75643)
[8] = target: Mitogen-activated protein kinase 7 (Homo sapiens, UniProt Q13164)
Insulin receptor = Insulin receptor (Homo sapiens, UniProt P06213)
[9] = target: T3, MAP kinase-activated protein kinase 5 (Homo sapiens, UniProt Q8IW41)
T3 sequence (Q8IW41 whole entry): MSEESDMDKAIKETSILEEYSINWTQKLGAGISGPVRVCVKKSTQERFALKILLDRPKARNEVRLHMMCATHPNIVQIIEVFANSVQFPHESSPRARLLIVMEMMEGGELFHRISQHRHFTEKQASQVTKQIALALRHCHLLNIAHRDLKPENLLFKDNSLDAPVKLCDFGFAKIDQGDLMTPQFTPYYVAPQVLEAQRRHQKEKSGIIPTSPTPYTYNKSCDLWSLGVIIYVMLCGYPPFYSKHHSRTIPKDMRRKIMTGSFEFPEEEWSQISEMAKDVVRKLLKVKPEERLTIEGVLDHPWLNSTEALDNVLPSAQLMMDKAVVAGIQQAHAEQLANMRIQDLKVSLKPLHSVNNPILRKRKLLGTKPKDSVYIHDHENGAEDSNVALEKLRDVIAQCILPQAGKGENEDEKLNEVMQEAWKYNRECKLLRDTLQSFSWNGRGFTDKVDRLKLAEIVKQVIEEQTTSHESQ

[10] = target: STE20-like serine/threonine-protein kinase (Homo sapiens, UniProt Q9H2G2)
[11] = target: Tyrosine-protein kinase BTK (Homo sapiens, UniProt Q06187)
Further: in the data inactive means no Kd found up to 30 µM.

Chain of Casein kinase I isoform epsilon (P49674 whole entry, canonical isoform): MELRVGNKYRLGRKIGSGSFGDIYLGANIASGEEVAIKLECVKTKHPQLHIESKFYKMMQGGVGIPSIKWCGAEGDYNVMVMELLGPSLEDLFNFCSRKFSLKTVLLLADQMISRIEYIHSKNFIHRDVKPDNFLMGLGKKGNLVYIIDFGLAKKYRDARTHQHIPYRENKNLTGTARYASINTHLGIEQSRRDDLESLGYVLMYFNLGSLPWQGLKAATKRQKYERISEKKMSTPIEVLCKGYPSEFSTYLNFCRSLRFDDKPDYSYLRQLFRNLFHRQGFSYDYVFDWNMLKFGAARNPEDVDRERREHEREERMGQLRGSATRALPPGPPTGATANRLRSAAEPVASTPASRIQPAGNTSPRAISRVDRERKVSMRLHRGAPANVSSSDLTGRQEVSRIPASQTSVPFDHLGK
Chain of Atypical kinase COQ8A, mitochondrial (Q8NI60 whole entry): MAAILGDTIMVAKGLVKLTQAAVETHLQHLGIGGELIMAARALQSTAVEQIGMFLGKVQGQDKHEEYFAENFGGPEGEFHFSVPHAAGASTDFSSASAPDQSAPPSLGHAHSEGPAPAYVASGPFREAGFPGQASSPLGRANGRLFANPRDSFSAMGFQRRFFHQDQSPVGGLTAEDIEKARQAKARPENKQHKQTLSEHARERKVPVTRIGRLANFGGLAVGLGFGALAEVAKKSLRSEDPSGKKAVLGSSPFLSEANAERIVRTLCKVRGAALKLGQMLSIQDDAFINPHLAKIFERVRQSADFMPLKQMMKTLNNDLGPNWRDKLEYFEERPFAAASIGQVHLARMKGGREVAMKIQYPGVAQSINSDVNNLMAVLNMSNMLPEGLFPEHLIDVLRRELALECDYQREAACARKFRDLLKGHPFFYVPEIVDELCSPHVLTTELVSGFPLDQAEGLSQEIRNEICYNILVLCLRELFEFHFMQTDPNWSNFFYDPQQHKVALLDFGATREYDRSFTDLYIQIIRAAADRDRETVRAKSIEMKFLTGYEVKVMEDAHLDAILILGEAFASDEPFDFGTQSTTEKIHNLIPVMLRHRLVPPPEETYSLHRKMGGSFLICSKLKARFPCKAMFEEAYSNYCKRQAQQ
Chain of Mitotic checkpoint serine/threonine-protein kinase BUB1 (O43683 whole entry): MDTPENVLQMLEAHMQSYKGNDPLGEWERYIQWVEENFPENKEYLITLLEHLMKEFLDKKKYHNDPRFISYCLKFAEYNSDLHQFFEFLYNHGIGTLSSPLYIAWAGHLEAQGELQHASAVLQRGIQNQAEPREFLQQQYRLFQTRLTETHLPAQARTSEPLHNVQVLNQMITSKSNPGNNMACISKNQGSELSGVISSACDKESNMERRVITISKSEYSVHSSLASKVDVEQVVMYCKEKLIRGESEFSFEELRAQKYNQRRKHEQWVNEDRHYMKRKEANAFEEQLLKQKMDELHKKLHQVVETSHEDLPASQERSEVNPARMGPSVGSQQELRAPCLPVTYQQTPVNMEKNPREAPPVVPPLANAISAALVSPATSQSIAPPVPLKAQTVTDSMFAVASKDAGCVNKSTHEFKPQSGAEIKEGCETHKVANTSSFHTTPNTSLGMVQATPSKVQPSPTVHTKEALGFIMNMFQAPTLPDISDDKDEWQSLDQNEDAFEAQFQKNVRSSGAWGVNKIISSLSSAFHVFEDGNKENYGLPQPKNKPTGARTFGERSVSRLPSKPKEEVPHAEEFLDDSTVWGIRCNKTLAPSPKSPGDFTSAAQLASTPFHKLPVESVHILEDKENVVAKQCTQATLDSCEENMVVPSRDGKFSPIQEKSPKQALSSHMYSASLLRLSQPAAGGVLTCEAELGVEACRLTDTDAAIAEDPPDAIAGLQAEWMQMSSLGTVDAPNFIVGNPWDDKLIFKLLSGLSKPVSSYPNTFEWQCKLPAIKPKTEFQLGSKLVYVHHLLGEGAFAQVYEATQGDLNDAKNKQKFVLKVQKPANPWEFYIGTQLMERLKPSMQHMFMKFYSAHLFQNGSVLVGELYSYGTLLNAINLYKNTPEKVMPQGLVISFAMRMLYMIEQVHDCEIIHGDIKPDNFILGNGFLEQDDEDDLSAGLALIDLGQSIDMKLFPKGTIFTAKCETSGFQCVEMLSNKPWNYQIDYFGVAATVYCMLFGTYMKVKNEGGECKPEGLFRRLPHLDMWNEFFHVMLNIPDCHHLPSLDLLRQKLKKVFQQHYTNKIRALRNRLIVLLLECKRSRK
Chain of U5 small nuclear ribonucleoprotein 200 kDa helicase (O75643 whole entry): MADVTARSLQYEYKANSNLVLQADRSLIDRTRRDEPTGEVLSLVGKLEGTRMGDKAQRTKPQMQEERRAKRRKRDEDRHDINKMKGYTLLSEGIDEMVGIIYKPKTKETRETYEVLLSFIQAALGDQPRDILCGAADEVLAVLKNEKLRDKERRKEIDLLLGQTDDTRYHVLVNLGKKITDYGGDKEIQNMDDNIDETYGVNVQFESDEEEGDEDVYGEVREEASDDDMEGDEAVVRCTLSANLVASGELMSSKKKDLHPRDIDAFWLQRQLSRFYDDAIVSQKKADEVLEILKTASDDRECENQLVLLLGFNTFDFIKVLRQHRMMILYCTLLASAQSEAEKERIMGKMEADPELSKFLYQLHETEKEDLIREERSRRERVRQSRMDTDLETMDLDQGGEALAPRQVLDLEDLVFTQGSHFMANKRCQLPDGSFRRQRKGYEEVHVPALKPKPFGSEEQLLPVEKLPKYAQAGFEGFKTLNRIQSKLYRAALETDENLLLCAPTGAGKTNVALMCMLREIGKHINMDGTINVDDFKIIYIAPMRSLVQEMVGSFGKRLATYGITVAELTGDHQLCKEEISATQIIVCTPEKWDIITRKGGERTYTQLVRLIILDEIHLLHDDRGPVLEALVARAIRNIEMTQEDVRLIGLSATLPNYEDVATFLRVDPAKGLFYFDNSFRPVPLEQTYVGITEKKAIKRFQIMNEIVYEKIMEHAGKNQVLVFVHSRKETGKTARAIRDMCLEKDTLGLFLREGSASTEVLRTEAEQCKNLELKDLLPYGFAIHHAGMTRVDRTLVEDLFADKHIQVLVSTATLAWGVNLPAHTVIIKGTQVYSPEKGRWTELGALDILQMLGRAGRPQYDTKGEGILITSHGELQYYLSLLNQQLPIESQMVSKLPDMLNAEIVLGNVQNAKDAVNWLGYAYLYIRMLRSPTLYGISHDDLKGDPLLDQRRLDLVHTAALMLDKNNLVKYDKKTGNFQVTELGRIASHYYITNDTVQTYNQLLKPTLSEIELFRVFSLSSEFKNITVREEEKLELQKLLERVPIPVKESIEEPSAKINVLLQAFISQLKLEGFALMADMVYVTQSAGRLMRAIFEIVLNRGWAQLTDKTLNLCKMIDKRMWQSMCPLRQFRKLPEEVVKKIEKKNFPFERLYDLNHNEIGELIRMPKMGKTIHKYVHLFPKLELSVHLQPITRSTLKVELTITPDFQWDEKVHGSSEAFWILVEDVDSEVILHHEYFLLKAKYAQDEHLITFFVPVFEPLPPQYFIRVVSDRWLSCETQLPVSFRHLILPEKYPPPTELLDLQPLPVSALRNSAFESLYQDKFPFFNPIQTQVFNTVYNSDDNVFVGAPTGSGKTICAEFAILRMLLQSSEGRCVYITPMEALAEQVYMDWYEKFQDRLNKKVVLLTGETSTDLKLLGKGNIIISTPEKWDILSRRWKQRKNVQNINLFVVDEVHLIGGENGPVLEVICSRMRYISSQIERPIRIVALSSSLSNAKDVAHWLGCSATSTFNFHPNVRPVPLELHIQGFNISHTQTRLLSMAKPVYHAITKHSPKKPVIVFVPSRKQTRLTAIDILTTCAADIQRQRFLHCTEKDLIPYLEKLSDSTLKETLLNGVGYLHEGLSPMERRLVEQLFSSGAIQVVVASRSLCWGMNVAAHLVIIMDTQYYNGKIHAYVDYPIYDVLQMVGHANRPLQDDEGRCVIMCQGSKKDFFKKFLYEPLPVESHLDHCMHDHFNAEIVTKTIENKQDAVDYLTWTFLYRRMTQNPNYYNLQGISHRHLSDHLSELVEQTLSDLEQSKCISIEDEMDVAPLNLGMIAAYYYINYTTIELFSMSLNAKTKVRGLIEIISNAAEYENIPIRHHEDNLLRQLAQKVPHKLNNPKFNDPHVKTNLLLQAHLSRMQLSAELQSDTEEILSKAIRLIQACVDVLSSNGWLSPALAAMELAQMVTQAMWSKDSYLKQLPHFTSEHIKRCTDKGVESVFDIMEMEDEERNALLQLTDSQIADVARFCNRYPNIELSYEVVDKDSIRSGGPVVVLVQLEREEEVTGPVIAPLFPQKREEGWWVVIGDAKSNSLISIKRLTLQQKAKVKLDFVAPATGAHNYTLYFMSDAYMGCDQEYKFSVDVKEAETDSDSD
Chain of Tyrosine-protein kinase BTK (Q06187 whole entry): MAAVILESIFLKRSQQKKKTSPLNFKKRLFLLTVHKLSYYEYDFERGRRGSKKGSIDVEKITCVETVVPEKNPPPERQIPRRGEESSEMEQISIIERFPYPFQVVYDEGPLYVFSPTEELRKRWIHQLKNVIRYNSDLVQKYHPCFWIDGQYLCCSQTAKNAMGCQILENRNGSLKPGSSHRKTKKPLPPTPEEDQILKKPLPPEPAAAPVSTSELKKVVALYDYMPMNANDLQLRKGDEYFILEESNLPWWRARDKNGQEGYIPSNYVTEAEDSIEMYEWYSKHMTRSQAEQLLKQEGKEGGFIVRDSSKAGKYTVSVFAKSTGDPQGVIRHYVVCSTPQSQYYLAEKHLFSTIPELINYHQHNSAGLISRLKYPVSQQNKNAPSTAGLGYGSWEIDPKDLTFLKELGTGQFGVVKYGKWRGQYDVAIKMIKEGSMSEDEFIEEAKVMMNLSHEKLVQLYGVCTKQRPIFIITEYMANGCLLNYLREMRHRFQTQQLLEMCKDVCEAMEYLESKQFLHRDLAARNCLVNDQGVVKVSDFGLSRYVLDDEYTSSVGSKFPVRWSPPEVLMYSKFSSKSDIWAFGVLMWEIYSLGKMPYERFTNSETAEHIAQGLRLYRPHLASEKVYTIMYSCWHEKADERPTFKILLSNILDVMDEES

Structure (SMILES) | Kd [2] | Kd (Midasin) | Kd [7] | Kd (Insulin receptor) | Kd [1] | Kd [3] | Kd [4] | Kd [5] | Kd [6] | Kd [8] | Kd [9] | Kd [10] | Kd [11]
CN(c1ncccc1CNc1nc(Nc2ccc3c(c2)CC(=O)N3)ncc1C(F)(F)F)S(C)(=O)=O [PF-00562271] | > 30 µM (inactive) | > 30 µM (inactive) | > 30 µM (inactive) | – | > 30 µM (inactive) | > 30 µM (inactive) | > 30 µM (inactive) | 4.5 µM (active) | > 30 µM (inactive) | – | – | – | –
C[C@]1(O)C[C@@H](c2nc(-c3ccc4ccc(-c5ccccc5)nc4c3)c3c(N)nccn32)C1 [LINSITINIB] | > 30 µM (inactive) | > 30 µM (inactive) | > 30 µM (inactive) | – | > 30 µM (inactive) | > 30 µM (inactive) | > 30 µM (inactive) | > 30 µM (inactive) | > 30 µM (inactive) | > 30 µM (inactive) | – | – | –
Cn1c(=O)n(-c2ccc(C(C)(C)C#N)cc2)c2c3cc(-c4cnc5ccccc5c4)ccc3ncc21 [DACTOLISIB] | > 30 µM (inactive) | > 30 µM (inactive) | > 30 µM (inactive) | > 30 µM (inactive) | > 30 µM (inactive) | > 30 µM (inactive) | > 30 µM (inactive) | > 30 µM (inactive) | > 30 µM (inactive) | > 30 µM (inactive) | > 30 µM (inactive) | > 30 µM (inactive) | –
COc1cc2c(Oc3ccc4[nH]c(C)cc4c3F)ncnc2cc1OCCCN1CCCC1 [CEDIRANIB] | > 30 µM (inactive) | > 30 µM (inactive) | > 30 µM (inactive) | – | – | – | > 30 µM (inactive) | – | – | – | – | – | –
CN1CCN(c2nc(C3=C(c4c[nH]c5ccccc45)C(=O)NC3=O)c3ccccc3n2)CC1 [SOTRASTAURIN] | > 30 µM (inactive) | > 30 µM (inactive) | > 30 µM (inactive) | – | > 30 µM (inactive) | > 30 µM (inactive) | > 30 µM (inactive) | > 30 µM (inactive) | > 30 µM (inactive) | > 30 µM (inactive) | > 30 µM (inactive) | > 30 µM (inactive) | > 30 µM (inactive)
CC(C)CC(=O)Nc1[nH]nc2c1CN(C(=O)C1CCN(C)CC1)C2(C)C [PHA-793887] | > 30 µM (inactive) | > 30 µM (inactive) | > 30 µM (inactive) | – | > 30 µM (inactive) | > 30 µM (inactive) | > 30 µM (inactive) | 3.58 µM (active) | > 30 µM (inactive) | > 30 µM (inactive) | > 30 µM (inactive) | > 30 µM (inactive) | > 30 µM (inactive)
C=CCn1c(=O)c2cnc(Nc3ccc(N4CCN(C)CC4)cc3)nc2n1-c1cccc(C(C)(C)O)n1 [ADAVOSERTIB] | > 30 µM (inactive) | > 30 µM (inactive) | > 30 µM (inactive) | > 30 µM (inactive) | > 30 µM (inactive) | > 30 µM (inactive) | > 30 µM (inactive) | > 30 µM (inactive) | > 30 µM (inactive) | > 30 µM (inactive) | > 30 µM (inactive) | > 30 µM (inactive) | –
COc1cc2c(N3CCN(C(=O)Nc4ccc(OC(C)C)cc4)CC3)ncnc2cc1OCCCN1CCCCC1 [TANDUTINIB] | > 30 µM (inactive) | > 30 µM (inactive) | – | – | – | – | > 30 µM (inactive) | – | – | – | – | – | –
CN(C)C/C=C/C(=O)Nc1cc2c(Nc3ccc(F)c(Cl)c3)ncnc2cc1O[C@H]1CCOC1 [AFATINIB] | > 30 µM (inactive) | > 30 µM (inactive) | > 30 µM (inactive) | – | – | – | > 30 µM (inactive) | – | – | – | – | – | –
CCc1nc(C(N)=O)c(Nc2ccc(N3CCC(N4CCN(C)CC4)CC3)c(OC)c2)nc1NC1CCOCC1 [GILTERITINIB] | > 30 µM (inactive) | > 30 µM (inactive) | 1.38 µM (active) | – | > 30 µM (inactive) | > 30 µM (inactive) | 0.191 µM (active) | > 30 µM (inactive) | > 30 µM (inactive) | > 30 µM (inactive) | > 30 µM (inactive) | 0.068 µM (active) | > 30 µM (inactive)
Cn1cnc2c(F)c(Nc3ccc(Br)cc3Cl)c(C(=O)NOCCO)cc21 [SELUMETINIB] | > 30 µM (inactive) | > 30 µM (inactive) | > 30 µM (inactive) | – | – | – | > 30 µM (inactive) | – | – | – | – | – | –
CC1(C)CNc2cc(NC(=O)c3cccnc3NCc3ccncc3)ccc21 [MOTESANIB] | > 30 µM (inactive) | > 30 µM (inactive) | > 30 µM (inactive) | – | – | – | > 30 µM (inactive) | – | – | – | – | > 30 µM (inactive) | –
O=S(=O)(c1cccc2cnccc12)N1CCCNCC1 [FASUDIL] | > 30 µM (inactive) | > 30 µM (inactive) | – | – | > 30 µM (inactive) | > 30 µM (inactive) | > 30 µM (inactive) | – | > 30 µM (inactive) | > 30 µM (inactive) | > 30 µM (inactive) | – | –
CCN(CCCOc1ccc2c(Nc3cc(CC(=O)Nc4cccc(F)c4)n[nH]3)ncnc2c1)CCOP(=O)(O)O [BARASERTIB] | > 30 µM (inactive) | > 30 µM (inactive) | > 30 µM (inactive) | > 30 µM (inactive) | > 30 µM (inactive) | > 30 µM (inactive) | – | > 30 µM (inactive) | > 30 µM (inactive) | > 30 µM (inactive) | > 30 µM (inactive) | > 30 µM (inactive) | –

Now from value to molecule, other results behind:

Kd [2] | Kd (Midasin) | Kd [7] | Kd (Insulin receptor) | Structure (SMILES) | Kd [1] | Kd [3] | Kd [4] | Kd [5] | Kd [6] | Kd [8] | Kd [9] | Kd [10] | Kd [11]
– | > 30 µM (inactive) | > 30 µM (inactive) | – | C[C@@]1(C(=O)Nc2ccc(F)nc2)CCCN1c1nc(Nc2cc(C3CC3)n[nH]2)c2cccn2n1 [BMS-754807] | – | – | – | – | – | – | – | – | –
> 30 µM (inactive) | > 30 µM (inactive) | > 30 µM (inactive) | – | CCOc1ccn(-c2ccc(F)cc2)c(=O)c1C(=O)Nc1ccc(Oc2ccnc(N)c2Cl)c(F)c1 [BMS-777607] | > 30 µM (inactive) | – | – | > 30 µM (inactive) | > 30 µM (inactive) | > 30 µM (inactive) | > 30 µM (inactive) | > 30 µM (inactive) | –
> 30 µM (inactive) | > 30 µM (inactive) | > 30 µM (inactive) | > 30 µM (inactive) | CC(C)(O)CC(=O)NCCn1ccc2ncnc(Nc3ccc(Oc4cccc(C(F)(F)F)c4)c(Cl)c3)c21 [TAK-285] | > 30 µM (inactive) | > 30 µM (inactive) | > 30 µM (inactive) | > 30 µM (inactive) | > 30 µM (inactive) | – | > 30 µM (inactive) | – | > 30 µM (inactive)

Source: ChEMBL document CHEMBL3991601, “The target landscape of clinical kinase drugs” (Science, 2017)
